In one assay the target is TC-PTP (Homo sapiens (Human), UniProt P17706). The assay can be described thus: pNPP hydrolysis enzyme assay, TC-PTP. It counts as biochemical. The protocol:
(§1) Enzyme kinetic assay. PTP activity was assayed using p-nitrophenyl phosphate (pNPP) as a substrate in 3,3-dimethylglutarate buffer (50 mM 3,3-dimethylglutarate, pH 7.0, 1 mM EDTA, 150 mM NaCl, 2 mM DTT, 0.1 mg/mL BSA) at 25° C. The assays were performed in 96-well plates. Normally, to determine the IC50 values, the reaction was initiated by the addition of enzyme (final concentration at 10 nM) to a reaction mixture (0.2 mL) containing 2 mM (Km for the substrate) pNPP with various concentrations of inhibitors. The reaction rate was measured using a SpectraMax Plus 384 Microplate Spectrophotometer (Molecular Devices). To determine the mode of inhibition, the reactions were initiated by the addition of PTP-MEG2 to the reaction mixtures (0.2 mL) containing various concentrations of pNPP with different concentrations of the inhibitor 7. Data were fitted using SigmaPlot Enzyme Kinetics Module (Systat Software, Inc.).

The target in the next assay is CD45 (Homo sapiens (Human), UniProt P08575). Nature of the assay: pNPP hydrolysis enzyme assay, CD45. It counts as biochemical. How it is done:
as §1

For a further assay, the target named is LAR (Homo sapiens (Human), UniProt P10586). Nature of the assay: pNPP hydrolysis enzyme assay, LAR. It counts as biochemical. The protocol: as §1
The target in another assay is LYP (Homo sapiens (Human), UniProt Q9Y2R2). Nature of the assay: pNPP hydrolysis enzyme assay, LYP. It counts as biochemical. How it is done: as §1
The next assay deals with DEP1 (Homo sapiens (Human), UniProt Q12913). Nature of the assay: pNPP hydrolysis enzyme assay, DEP1. It counts as biochemical. The protocol:
as §1

For a further assay, the target named is PTPμ (Homo sapiens (Human), UniProt P28827). The assay can be described thus: pNPP hydrolysis enzyme assay, PTPμ. It counts as biochemical. How it is done: as §1
A further assay addresses PTPH1 (Homo sapiens (Human), UniProt P26045). Nature of the assay: pNPP hydrolysis enzyme assay, PTPH1. It counts as biochemical. How it is done: as §1
In a further assay the target is PTPε (Homo sapiens (Human), UniProt P23469). The assay can be described thus: pNPP hydrolysis enzyme assay, PTPε. It counts as biochemical. How it is done: as §1
Assay [1] has as its system 3T3-L1 differentiated adipocytes. The assay can be described thus: Insulin signaling in 3T3-L1 differentiated adipocytes. It counts as cell-based. The following applies: 3T3-L1 adipocytes, 1 hour pretreatment before insulin. How it is done:
Cell lysate (20 μg protein) was subjected to 10% SDS-PAGE and probed with phospho-Akt, phospho-IR (Y1162/1163) or Akt antibody, respectively. […] Cell lysate (20 μg protein) was subjected to 10% SDS-PAGE and probed with phospho-IR(Y1162/1163), phospho-Akt (pS473) or total Akt antibody, respectively. […] Cell lysate (20 μg protein) or insulin receptor immunoprecipitation beads were subjected to 10% SDS-PAGE and probed with phospho-Akt, Akt, insulin receptor beta or phospho-tyrosine antibody (4G10), respectively. The non-specific band from insulin receptor immunoprecipitates served as a loading control for insulin receptor and phospho-insulin receptor.
Western blot analysis. Cells were homogenized in the lysis buffer (50 mM Hepes, pH 7.5, 150 mM NaCl, 10% Glycerol, 1% Triton X-100, 1.5 mM MgCl2, 1 mM EGTA, 10 μM Sodium Pyrophosphate, 100 mM sodium fluoride and freshly added 100 μM sodium vanadate, 1 mM PMSF, 10 μg/ml Aprotinin, and 10 μg/mL Leupeptin). Protein extracts were resolved on an SDS-PAGE gel and transferred to nitrocellulose membrane. […] Protein signals were detected by incubation with HRP-conjugated secondary antibodies, followed by ECL detection reagent (Pierce). Western blots were scanned and quantified using the Quantity One software (Bio-Rad).

Assay [2] concerns diet-induced obese C57BL/6 mice. Nature of the assay: Insulin tolerance test in diet-induced obese mice. The format is in vivo, mouse. The following applies: 5 mg/kg i.p. twice a day. The protocol:
C57BL/6J mice were fed a high-fat diet for 10 weeks before Compound 7 or vehicle was injected intraperitoneally twice a day at a dose of 5 mg/kg body weight. FIG. 5A depicts insulin tolerance tests (ITT) performed on Day 7 by injecting intraperitoneally a bolus of 0.75 unit/kg of human regular insulin. […] FIG. 5C depicts glucose tolerance tests (GTT) carried out on Day 9 after a bolus of 1 g/kg glucose was injected intraperitoneally. […] FIG. 5E depicts pyruvate tolerance tests (PTT) performed on Day 12 after an injection of 2 g/kg pyruvate solution. […] At the end of 2-week injections of Compound 7, animals were fasted overnight and stimulated with a bolus of 1 unit of human regular insulin or saline via vena cava. Three minutes later, liver, skeletal muscle, and white adipose tissue (WAT) were collected sequentially for insulin signaling analysis. FIG. 5G depicts the phosphorylation of Tyr1162/1163 in insulin receptor (IR) and Ser473 phosphorylation in Akt kinases and the corresponding proteins in the liver, skeletal muscle, and white adipose tissue (WAT) were analyzed by immunoblots.
To this end, we intraperitoneally injected Compound 7 into diet-induced obese C57BL/6 mice at a dose of 5 mg/kg twice a day. […] After 7 days of injections, we performed insulin tolerance tests to measure insulin sensitivity in vehicle and Compound 7 treated mice.

pIC50: −log10 of the molar value. Like-named read-outs stand apart in the source and are kept apart here.

What is called IC50 is the concentration at which inhibition is half-maximal. A word on the pIC50: it is the negative decadic logarithm of the IC50, by convention in mol/L.

TC-PTP, sequence (P17706 whole entry, looked up, species assumed): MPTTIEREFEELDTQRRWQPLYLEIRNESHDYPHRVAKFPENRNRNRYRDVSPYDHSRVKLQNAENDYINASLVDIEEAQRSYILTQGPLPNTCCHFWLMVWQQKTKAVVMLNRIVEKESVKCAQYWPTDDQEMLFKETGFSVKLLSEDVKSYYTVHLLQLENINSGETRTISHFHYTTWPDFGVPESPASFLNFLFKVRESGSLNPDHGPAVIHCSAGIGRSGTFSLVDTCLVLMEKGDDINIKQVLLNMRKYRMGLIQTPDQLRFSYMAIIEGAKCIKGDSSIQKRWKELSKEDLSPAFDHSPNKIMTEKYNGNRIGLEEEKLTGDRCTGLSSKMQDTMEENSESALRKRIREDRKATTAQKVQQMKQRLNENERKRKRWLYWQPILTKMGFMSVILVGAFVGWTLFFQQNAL
PTPH1, sequence (P26045 whole entry, species assumed): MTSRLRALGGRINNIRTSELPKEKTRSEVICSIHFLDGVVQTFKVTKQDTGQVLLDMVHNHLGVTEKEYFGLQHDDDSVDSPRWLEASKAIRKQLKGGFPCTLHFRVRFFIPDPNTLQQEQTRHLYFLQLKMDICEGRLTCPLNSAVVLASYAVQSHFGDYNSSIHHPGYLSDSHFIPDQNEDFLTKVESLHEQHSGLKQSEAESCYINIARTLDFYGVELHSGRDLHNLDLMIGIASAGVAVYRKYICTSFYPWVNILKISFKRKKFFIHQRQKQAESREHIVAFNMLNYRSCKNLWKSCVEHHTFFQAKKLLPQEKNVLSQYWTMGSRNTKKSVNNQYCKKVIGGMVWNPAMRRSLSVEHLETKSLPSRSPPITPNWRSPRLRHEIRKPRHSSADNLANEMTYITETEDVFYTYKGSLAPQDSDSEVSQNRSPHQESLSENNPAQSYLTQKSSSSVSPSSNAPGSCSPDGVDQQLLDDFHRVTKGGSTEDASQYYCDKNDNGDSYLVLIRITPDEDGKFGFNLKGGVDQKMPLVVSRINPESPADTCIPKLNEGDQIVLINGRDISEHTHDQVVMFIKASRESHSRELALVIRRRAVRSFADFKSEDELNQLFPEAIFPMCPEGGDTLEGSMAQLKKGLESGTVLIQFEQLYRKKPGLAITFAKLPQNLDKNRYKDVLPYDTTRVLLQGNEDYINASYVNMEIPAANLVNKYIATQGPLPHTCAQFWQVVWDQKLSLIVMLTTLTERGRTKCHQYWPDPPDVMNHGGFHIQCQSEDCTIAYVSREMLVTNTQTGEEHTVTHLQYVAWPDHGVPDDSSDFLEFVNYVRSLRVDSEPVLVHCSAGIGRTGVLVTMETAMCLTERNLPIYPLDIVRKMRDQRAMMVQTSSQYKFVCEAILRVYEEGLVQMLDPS
LYP, sequence (Q9Y2R2 whole entry, species assumed): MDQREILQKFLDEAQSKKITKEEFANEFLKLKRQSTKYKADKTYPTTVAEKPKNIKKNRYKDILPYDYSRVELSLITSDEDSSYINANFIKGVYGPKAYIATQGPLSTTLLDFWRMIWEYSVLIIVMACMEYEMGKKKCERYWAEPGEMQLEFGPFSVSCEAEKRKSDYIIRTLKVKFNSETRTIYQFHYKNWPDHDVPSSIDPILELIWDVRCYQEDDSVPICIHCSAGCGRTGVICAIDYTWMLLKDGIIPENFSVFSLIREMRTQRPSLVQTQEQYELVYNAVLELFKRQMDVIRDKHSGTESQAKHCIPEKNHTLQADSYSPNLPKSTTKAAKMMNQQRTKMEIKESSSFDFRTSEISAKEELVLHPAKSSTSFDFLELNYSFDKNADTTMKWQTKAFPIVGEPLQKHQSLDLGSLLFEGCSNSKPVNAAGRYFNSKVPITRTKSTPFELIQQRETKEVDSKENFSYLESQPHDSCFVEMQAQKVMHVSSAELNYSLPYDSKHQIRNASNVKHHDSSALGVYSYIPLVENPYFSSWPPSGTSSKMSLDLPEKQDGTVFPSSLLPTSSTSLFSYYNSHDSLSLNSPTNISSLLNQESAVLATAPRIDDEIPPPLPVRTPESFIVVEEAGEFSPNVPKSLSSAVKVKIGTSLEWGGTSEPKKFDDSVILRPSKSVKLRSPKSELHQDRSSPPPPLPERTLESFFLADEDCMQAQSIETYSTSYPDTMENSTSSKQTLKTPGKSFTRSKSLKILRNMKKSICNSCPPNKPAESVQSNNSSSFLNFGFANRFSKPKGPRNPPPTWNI
LAR, sequence (P10586 whole entry, looked up, species assumed): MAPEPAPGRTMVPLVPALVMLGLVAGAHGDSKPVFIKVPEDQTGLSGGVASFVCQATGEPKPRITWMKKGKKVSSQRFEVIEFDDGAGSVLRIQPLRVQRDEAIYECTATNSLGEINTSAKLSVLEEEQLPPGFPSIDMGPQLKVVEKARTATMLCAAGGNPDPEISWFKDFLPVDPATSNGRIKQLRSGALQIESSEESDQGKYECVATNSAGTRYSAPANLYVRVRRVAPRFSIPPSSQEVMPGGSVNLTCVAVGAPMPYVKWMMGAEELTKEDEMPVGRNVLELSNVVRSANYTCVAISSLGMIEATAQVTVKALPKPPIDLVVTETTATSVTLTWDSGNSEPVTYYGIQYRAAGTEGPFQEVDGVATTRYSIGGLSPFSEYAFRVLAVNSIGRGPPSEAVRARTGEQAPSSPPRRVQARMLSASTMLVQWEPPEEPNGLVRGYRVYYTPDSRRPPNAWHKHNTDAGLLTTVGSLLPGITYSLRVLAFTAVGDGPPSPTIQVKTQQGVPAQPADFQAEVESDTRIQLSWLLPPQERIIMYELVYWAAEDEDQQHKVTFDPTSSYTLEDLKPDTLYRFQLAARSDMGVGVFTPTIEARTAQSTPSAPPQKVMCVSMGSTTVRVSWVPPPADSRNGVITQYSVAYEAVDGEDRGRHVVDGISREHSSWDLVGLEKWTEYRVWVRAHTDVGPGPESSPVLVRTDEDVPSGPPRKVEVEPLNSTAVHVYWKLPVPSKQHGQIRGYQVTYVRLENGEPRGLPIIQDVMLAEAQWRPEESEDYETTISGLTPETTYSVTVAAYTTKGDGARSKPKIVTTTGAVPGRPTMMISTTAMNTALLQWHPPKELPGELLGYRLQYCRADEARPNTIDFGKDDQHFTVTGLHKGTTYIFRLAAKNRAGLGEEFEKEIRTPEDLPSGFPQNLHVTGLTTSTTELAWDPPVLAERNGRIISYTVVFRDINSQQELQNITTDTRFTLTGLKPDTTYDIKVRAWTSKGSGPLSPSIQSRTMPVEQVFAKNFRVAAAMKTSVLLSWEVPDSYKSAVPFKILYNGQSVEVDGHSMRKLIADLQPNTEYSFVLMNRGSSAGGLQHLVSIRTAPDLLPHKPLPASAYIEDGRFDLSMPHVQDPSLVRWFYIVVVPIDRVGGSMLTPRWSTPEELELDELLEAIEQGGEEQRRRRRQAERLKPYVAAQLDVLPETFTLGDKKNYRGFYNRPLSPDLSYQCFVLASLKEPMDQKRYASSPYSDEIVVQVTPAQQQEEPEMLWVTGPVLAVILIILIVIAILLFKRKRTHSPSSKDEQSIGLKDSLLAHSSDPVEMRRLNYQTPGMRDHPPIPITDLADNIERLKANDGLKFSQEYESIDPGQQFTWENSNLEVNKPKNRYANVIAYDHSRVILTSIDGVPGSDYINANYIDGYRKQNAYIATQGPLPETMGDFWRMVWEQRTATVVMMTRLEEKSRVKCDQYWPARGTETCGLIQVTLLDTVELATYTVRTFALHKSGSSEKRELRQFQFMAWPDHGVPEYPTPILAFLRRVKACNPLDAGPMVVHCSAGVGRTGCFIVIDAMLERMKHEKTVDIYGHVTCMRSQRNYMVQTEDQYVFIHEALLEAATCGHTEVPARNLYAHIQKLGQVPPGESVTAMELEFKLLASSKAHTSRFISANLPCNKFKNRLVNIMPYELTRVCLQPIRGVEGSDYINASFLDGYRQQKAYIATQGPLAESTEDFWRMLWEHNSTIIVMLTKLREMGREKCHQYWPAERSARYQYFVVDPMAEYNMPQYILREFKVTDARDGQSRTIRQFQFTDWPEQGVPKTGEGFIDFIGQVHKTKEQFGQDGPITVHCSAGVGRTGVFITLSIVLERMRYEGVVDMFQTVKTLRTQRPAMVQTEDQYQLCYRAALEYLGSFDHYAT
PTPε, sequence (P23469 20-700): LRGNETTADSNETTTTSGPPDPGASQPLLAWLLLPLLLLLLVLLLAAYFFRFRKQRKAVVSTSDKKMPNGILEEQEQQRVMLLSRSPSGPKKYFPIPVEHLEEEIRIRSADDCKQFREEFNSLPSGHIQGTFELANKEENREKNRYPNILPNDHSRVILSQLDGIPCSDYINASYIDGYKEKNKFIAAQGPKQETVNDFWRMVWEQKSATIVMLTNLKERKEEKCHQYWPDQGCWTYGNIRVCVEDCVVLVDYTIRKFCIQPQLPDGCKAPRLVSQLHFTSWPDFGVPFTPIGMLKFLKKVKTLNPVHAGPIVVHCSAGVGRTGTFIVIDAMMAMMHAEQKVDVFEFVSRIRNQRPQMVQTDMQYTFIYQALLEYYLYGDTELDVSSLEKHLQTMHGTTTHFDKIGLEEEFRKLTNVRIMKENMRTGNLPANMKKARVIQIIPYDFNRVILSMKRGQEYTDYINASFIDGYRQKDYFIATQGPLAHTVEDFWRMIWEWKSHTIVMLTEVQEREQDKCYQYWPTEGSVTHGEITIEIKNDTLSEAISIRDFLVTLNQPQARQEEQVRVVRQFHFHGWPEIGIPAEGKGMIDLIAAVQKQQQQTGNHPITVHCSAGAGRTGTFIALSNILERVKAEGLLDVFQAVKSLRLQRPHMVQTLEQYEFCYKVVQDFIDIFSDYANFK

Regarding `COc1cc(CC(=O)NCC(NC(=O)C(CCCNC(=O)c2cccc(I)c2)NC(=O)C(Cc2ccc(C(F)(F)P(=O)(O)O)cc2)NC(=O)c2ccc(C)c(Br)c2)C(N)=O)ccc1O` (stereo not shown) [Compound 7], the 50% inhibitory concentration (IC50) at TC-PTP (pNPP substrate, read-out: IC50 (nM) TC-PTP) is 830 nM; at CD45 it was > 10000 nM; at LAR, > 10000 nM; against LYP it was > 10000 nM; at DEP1, > 10000 nM; on PTPμ, > 10000 nM. Besides, the IC50 on PTPH1 and against PTPε was > 10000 nM in each case. Moreover, the pIC50 at TC-PTP (pNPP substrate, read-out: IC50 for TC-PTP) is 6.08. Also, the “selectivity for PTP-MEG2 over TC-PTP” value at TC-PTP (ratio of IC50 values) is “more than 10 fold”. In [1], the “insulin signaling (phospho-Akt, phospho-IR)” value was “augmented insulin signaling”. Further, in [2] (Day 7, at 15 and 60 minutes after 0.75 unit insulin), the “insulin sensitivity in insulin tolerance test” value was “significantly improved insulin sensitivity”. The “improvement in insulin tolerance (AUC)” value in assay [2] (Day 7, vs vehicle) is listed as 14%.

(Values after patent US9340574B2, “Inhibitors of protein tyrosine phosphatases” (Indiana University Research and Technology Corporation, priority 2012, dated 2016).)
